Holding throughout (assay type): biochemical
One assay concerns the target Pim-1 (Homo sapiens (Human), UniProt P11309). As to the kind of experiment: Pim-1 kinase assay. The note with it: 1 mM ATP; class symbols; read-out: Pim1 IC50. As for the experimental part:
Supplementation of the STOP buffer with beads and stopping the reactions were done under reduced light. Prior to the stopping reactions STOP buffer with beads was pre-incubated for 1 h in the dark at room temperature. After stopping the reactions, plates were incubated for 1 h in the dark at room temperature before reading on a PHERAstar FS plate reader (BMG Labtech) under reduced light.

The next assay concerns the target Pim-2 (Homo sapiens (Human), UniProt Q9P1W9). As to the kind of experiment: Pim-2 kinase assay. As for the experimental part:
Pim-2 kinase assay—20 μL reactions were run in white 384 well polystyrene plates dotted with 0.8 μL compound/DMSO in the assay buffer (50 mM Tris, pH 7.5, 0.01% Tween-20, 5 mM MgCl2, 0.01% BSA, 5 mM DTT), containing 0.05 μM Fluorescein-labeled CREBtide peptide substrate (Invitrogen PV3508), 1 mM ATP, and 1 nM enzyme (Invitrogen PV3649) for 2 h at 25° C. Reactions were stopped by addition of 10 μL TR-FRET Dilution Buffer (Invitrogen PV3574) with 30 mM EDTA and 1.5 nM LanthaScreen Tb-CREB pSer133 antibody (Invitrogen PV3566). After 30 min. incubation at room temperature, plates were read on a PHERAstar FS plate reader (BMG Labtech).
Although the above in vitro assays are conducted at 1 mM ATP compounds can also be evaluated for potency and in vitro activity against PIM targets utilizing Km conditions, where the concentration of ATP is set to the Km value and the assay is more sensitive to PIM inhibition activity.

In the next assay the target is Pim-3 (Homo sapiens (Human), UniProt Q86V86). As to the kind of experiment: Pim-3 kinase assay. The note with it: 1 mM ATP; class symbols; read-out: Pim3 IC50. As for the experimental part:
Pim-1 and Pim-3 kinase assays—20 μL reactions were run in white 384 well polystyrene plates dotted with […] in the assay buffer (50 mM Tris, pH 7.5, 0.01% Tween-20, 5 mM MgCl2, 0.01% BSA, 5 mM DTT), containing 0.05 μM Biotin-labeled BAD peptide substrate (AnaSpec 62269), 1 mM ATP, and 2.5 pM (Pim-1, Invitrogen PV3503) or 1.25 pM (Pim-3, Millipore 14-738) enzyme for 1 h at 25° C. Reactions were stopped by addition of 10 μL STOP Buffer (150 mM Tris, pH=7.5, 150 mM NaCl, 75 mM EDTA, 0.01% Tween-20, 0.3% BSA) supplemented with Phospho-Bad (Ser112) Antibody (Cell Signaling 9291) diluted 666-fold, and Streptavidin donor beads (PerkinElmer 6760002) along with Protein-A acceptor beads (PerkinElmer 6760137) at 15 μg/mL each. Supplementation of the STOP buffer with beads and stopping the reactions were done under reduced light. Prior to the stopping reactions STOP buffer with beads was pre-incubated for 1 h in the dark at room temperature. After stopping the reactions, plates were incubated for 1 h in the dark at room temperature before reading on a PHERAstar FS plate reader (BMG Labtech) under reduced light.

Structures are written as SMILES. Read-outs that look alike come from different tables or passages of the source.

Pim-2, sequence (Q9P1W9 whole entry): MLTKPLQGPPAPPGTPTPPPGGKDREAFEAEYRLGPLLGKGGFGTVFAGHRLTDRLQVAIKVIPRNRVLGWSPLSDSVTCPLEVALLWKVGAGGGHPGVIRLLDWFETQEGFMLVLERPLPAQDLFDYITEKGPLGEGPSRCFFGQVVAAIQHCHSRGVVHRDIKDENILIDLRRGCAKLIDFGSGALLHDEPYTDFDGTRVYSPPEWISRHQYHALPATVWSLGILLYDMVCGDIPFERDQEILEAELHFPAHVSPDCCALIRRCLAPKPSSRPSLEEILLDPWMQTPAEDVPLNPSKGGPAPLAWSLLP
Pim-1, sequence (P11309 whole entry): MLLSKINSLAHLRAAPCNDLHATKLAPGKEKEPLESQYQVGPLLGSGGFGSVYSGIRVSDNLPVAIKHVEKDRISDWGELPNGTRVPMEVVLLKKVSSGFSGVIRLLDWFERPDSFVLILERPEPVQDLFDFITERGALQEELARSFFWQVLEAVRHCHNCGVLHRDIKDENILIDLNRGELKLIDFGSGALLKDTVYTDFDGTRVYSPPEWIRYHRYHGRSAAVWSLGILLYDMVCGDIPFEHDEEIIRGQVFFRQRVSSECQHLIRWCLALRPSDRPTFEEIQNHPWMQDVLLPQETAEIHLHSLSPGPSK

`C[C@H]1CN(c2c(NC(=O)c3ccc(F)c(-c4c(F)cccc4F)n3)cnc3c2CCC3O)C[C@@H](N)[C@@H]1O` (mixture of isomers) [Example 37 (mixture of diastereoisomers), N-{4-[(3R,4R,5S)-3-Amino-4-hydroxy-5-methylpiperidin-1-yl]-7-hydroxy-6,7-dihydro-5H-cyclopenta[b]pyridin-3-yl}-6-(2,6-difluorophenyl)-5-fluoropyridine-2-carboxamide]: the IC50 at Pim-1 was at most 100 nM; on Pim-2 (1 mM ATP, class symbols, read-out: Pim2 IC50), at most 100 nM; on Pim-3, at most 100 nM.
In the case of `N[C@H]1CCCN(c2c(NC(=O)c3csc(-c4c(F)cccc4F)n3)cnc3ccccc23)C1` [Example 2, N-{4-[(3S)-3-Aminopiperidin-1-yl]quinolin-3-yl}-2-(2,6-difluorophenyl)-1,3-thiazole-4-carboxamide], the IC50 on Pim-2 (Km ATP concentration rather than 1 mM, read-out: Pim2 IC50 at Km ATP concentration) was 100 to 1000 nM.

The values above are taken from patent US10828290B2, “Thiazolecarboxamides and pyridinecarboxamide compounds useful as pim kinase inhibitors” (Incyte Corporation, priority 2013, dated 2020).
